Results reported in ChEMBL document CHEMBL2046309, “Semi-synthesis and bio-evaluation of polybrominated diphenyl ethers from the sponge Dysidea herbacea” (Bioorg Med Chem Lett, 2012).
Converted amounts (≈) assume the structure as drawn. The source made the active and inactive calls. The rule behind the calls is not given here.

How the values were obtained:
HL-60 = assay: Cytotoxicity against human HL60 cells assessed as decrease in cell number after 24 hrs by MTT assay; assay type: functional, cell-based; settings: HL-60, 24 h
U-937 = assay: Cytotoxicity against human U937 cells assessed as decrease in cell number after 24 hrs by MTT assay; assay type: functional, cell-based; settings: U-937, 24 h
Escherichia coli = assay: Antibacterial activity against Escherichia coli by paper disc assay method; assay type: functional, organism-based
Pseudomonas syringae = assay: Antibacterial activity against Pseudomonas syringae by paper disc assay method; assay type: functional, organism-based
Staphylococcus aureus = assay: Antibacterial activity against Staphylococcus aureus by paper disc assay method; assay type: functional, organism-based
Bacillus subtilis = assay: Antibacterial activity against Bacillus subtilis by paper disc assay method; assay type: functional, organism-based
Artemia = assay: Toxicity in brine shrimps; assay type: organism-based; settings: in vivo

SMILES: COc1cc([C@@H]2c3cc4c(cc3[C@@H](O[C@@H]3O[C@@H]5CO[C@@H](C)O[C@H]5[C@H](O)[C@H]3O)[C@H]3COC(=O)[C@H]23)OCO4)cc(OC)c1O [ETOPOSIDE]
- IC50 (HL-60): 1.1 µg/mL (≈ 1.87 µM)

SMILES: COc1ccccc1N1CCN(CCCCCOc2c(Br)cc(Br)cc2Oc2ccc(Br)cc2Br)CC1
- IC50 (HL-60): 32.2 µg/mL (≈ 42.2 µM)
- IC50 (U-937): 37.5 µg/mL (≈ 49.2 µM)

SMILES: BrCCCOc1c(Br)cc(Br)cc1Oc1ccc(Br)cc1Br
- IC50 (HL-60): 29.9 µg/mL (≈ 48 µM)
- IC50 (U-937): 30.3 µg/mL (≈ 48.7 µM)

SMILES: COc1c(Br)cc(Br)cc1Oc1ccc(Br)cc1Br
- IC50 (HL-60): 28.2 µg/mL (≈ 54.7 µM)
- IC50 (U-937): 34.5 µg/mL (≈ 66.9 µM)
- Activity (Escherichia coli): Active
- Activity (Pseudomonas syringae): Active
- Activity (Staphylococcus aureus): Active
- Activity (Bacillus subtilis): Active
- LC50 (Artemia): 19.28 ppm

SMILES: Cc1ccc(S(=O)(=O)n2nc(N3CCN(CCCCCOc4c(Br)cc(Br)cc4Oc4ccc(Br)cc4Br)CC3)c3cc([N+](=O)[O-])ccc32)cc1
- IC50 (HL-60): 52.5 µg/mL (≈ 54 µM)
- IC50 (U-937): 68.5 µg/mL (≈ 70.5 µM)

SMILES: OCCOc1c(Br)cc(Br)cc1Oc1ccc(Br)cc1Br
- IC50 (HL-60): 28.2 µg/mL (≈ 51.7 µM)
- IC50 (U-937): 34.5 µg/mL (≈ 63.2 µM)

SMILES: CC(C)(C)OC(=O)N1CCN(CCCCCOc2c(Br)cc(Br)cc2Oc2ccc(Br)cc2Br)CC1
- IC50 (HL-60): 32.1 µg/mL (≈ 42.5 µM)
- IC50 (U-937): 35.5 µg/mL (≈ 46.9 µM)

SMILES: CC(C)(C)C(=O)C(C#N)Oc1c(Br)cc(Br)cc1Oc1ccc(Br)cc1Br (stereo not drawn)
- IC50 (HL-60): 29.2 µg/mL (≈ 46.7 µM)
- IC50 (U-937): 32.5 µg/mL (≈ 52 µM)

SMILES: Brc1ccc(Oc2cc(Br)cc(Br)c2OCCCCCN2CCN(c3ccccc3)CC2)c(Br)c1
- IC50 (HL-60): 41.6 µg/mL (≈ 56.8 µM)
- IC50 (U-937): 42.5 µg/mL (≈ 58 µM)

SMILES: BrCCCCCOc1c(Br)cc(Br)cc1Oc1ccc(Br)cc1Br
- IC50 (HL-60): 25.7 µg/mL (≈ 39.5 µM)
- IC50 (U-937): 29.5 µg/mL (≈ 45.3 µM)

SMILES: Brc1ccc(Oc2cc(Br)cc(Br)c2OCCCCCN2CCN(C/C=C/c3ccccc3)CC2)c(Br)c1
- IC50 (HL-60): 47.2 µg/mL (≈ 61.1 µM)
- IC50 (U-937): 32.7 µg/mL (≈ 42.3 µM)

SMILES: BrCCOc1c(Br)cc(Br)cc1Oc1ccc(Br)cc1Br
- IC50 (HL-60): 26.2 µg/mL (≈ 43 µM)
- IC50 (U-937): 32.5 µg/mL (≈ 53.4 µM)

SMILES: C#CCOc1c(Br)cc(Br)cc1Oc1ccc(Br)cc1Br
- IC50 (HL-60): 29.7 µg/mL (≈ 55 µM)
- IC50 (U-937): 29.5 µg/mL (≈ 54.6 µM)

SMILES: CC(C)(C)OC(=O)N1CCCN(CCCCCOc2c(Br)cc(Br)cc2Oc2ccc(Br)cc2Br)CC1
- IC50 (HL-60): 44.8 µg/mL (≈ 58.2 µM)
- IC50 (U-937): 39.5 µg/mL (≈ 51.3 µM)

SMILES: Brc1ccc(Oc2cc(Br)cc(Br)c2OCc2ccccc2)c(Br)c1
- IC50 (HL-60): 27.9 µg/mL (≈ 47.1 µM)
- IC50 (U-937): 29 µg/mL (≈ 49 µM)

SMILES: BrCCCCCCOc1c(Br)cc(Br)cc1Oc1ccc(Br)cc1Br
- IC50 (HL-60): 37.8 µg/mL (≈ 56.9 µM)
- IC50 (U-937): 33.8 µg/mL (≈ 50.8 µM)

SMILES: CN1CCN(CCCCCOc2c(Br)cc(Br)cc2Oc2ccc(Br)cc2Br)CC1
- IC50 (HL-60): 48.3 µg/mL (≈ 72.1 µM)
- IC50 (U-937): 49.1 µg/mL (≈ 73.3 µM)

SMILES: BrCCCCOc1c(Br)cc(Br)cc1Oc1ccc(Br)cc1Br
- IC50 (HL-60): 25.9 µg/mL (≈ 40.7 µM)
- IC50 (U-937): 29 µg/mL (≈ 45.5 µM)

SMILES: CCOC(=O)C(C)Oc1c(Br)cc(Br)cc1Oc1ccc(Br)cc1Br (stereo not drawn)
- IC50 (HL-60): 35.7 µg/mL (≈ 59.3 µM)
- IC50 (U-937): 39.5 µg/mL (≈ 65.6 µM)

SMILES: Oc1c(Br)cc(Br)cc1Oc1ccc(Br)cc1Br
- IC50 (HL-60): 19.3 µg/mL (≈ 38.5 µM)
- IC50 (U-937): 22.5 µg/mL (≈ 44.8 µM)
- LC50 (Artemia): 12.8 ppm

SMILES: CC(=O)Oc1c(Br)cc(Br)cc1Oc1ccc(Br)cc1Br
- IC50 (HL-60): 29.9 µg/mL (≈ 55 µM)
- IC50 (U-937): 32.3 µg/mL (≈ 59.4 µM)
- Activity (Escherichia coli): Active
- Activity (Pseudomonas syringae): Active
- Activity (Staphylococcus aureus): Active
- Activity (Bacillus subtilis): Active
- LC50 (Artemia): 23.28 ppm

SMILES: OCCCOc1c(Br)cc(Br)cc1Oc1ccc(Br)cc1Br
- IC50 (HL-60): 29.9 µg/mL (≈ 53.4 µM)
- IC50 (U-937): 32.3 µg/mL (≈ 57.7 µM)

SMILES: C=CCOc1c(Br)cc(Br)cc1Oc1ccc(Br)cc1Br
- IC50 (HL-60): 27.9 µg/mL (≈ 51.5 µM)
- IC50 (U-937): 29 µg/mL (≈ 53.5 µM)

SMILES: Brc1ccc(Oc2cc(Br)cc(Br)c2OCCCCCN2CCOCC2)c(Br)c1
- IC50 (HL-60): 50.5 µg/mL (≈ 76.9 µM)
- IC50 (U-937): 39.8 µg/mL (≈ 60.6 µM)
